Assay results: PubChem BioAssay (NCI)
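The compound was tested at five concentrations on cells cultured in 96-well plates, with a 48-hour exposure period. GI50 marks 50% less growth. TGI denotes the concentration required for complete inhibition of growth.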

Experiments:
Assay in all cases: growth of human tumour cells (NCI), 48 h
[1] = tested on: BT-549 breast
[2] = tested on: HOP-92 NSCLC
[3] = tested on: M14 melanoma
[4] = tested on: NCI/ADR-RES ovarian
[5] = tested on: OVCAR-5 ovarian
[6] = tested on: SF-295 CNS
[7] = tested on: SK-MEL-28 melanoma
[8] = tested on: UACC-62 melanoma
[9] = tested on: ACHN renal
[10] = tested on: HCC-2998 colon

| Structure (SMILES) | GI50 [1] [µM] | TGI [1] [µM] | GI50 [2] [µM] | TGI [2] [µM] | GI50 [3] [µM] | TGI [3] [µM] | GI50 [4] [µM] | TGI [4] [µM] | GI50 [5] [µM] | TGI [5] [µM] | GI50 [6] [µM] | TGI [6] [µM] | GI50 [7] [µM] | TGI [7] [µM] | GI50 [8] [µM] | TGI [8] [µM] | TGI [9] [µM] | TGI [10] [µM] | GI50 [9] [µM] | GI50 [10] [µM] |
| --- | --- | --- | --- | --- | --- | --- | --- | --- | --- | --- | --- | --- | --- | --- | --- | --- | --- | --- | --- | --- |
| C=C(CN(C)Cc1ccccc1)c1ccc(C(=O)Nc2ccccc2N)cc1 | 1.48 | 10.1 | 3.36 | 24.5 | 13.4 | 41.2 | 1.07 | 4.94 | 5.46 | 21.4 | 5.4 | 16.7 | 7.79 | > 50 | 2.16 | 18.4 |  |  |  |  |
| Cc1cccc2c(N=Nc3ccccc3[N+](=O)[O-])c(O)[nH]c12 |  | > 74.1 |  | 8.16 |  | > 100 |  | > 31.4 |  | > 69.2 |  | 28.3 |  | > 100 |  | 73.7 | 18.8 | > 31.6 |  |  |
| CNC1=CC(=O)C2=C(C1=O)C1C3=C(C(=O)C(Br)=C(OC)C3=O)C2c2ccccc21 (configuration not stated) | 1.6 | 5.3 | 1.24 | 2.97 | 6.76 | 17.1 | 1.55 | 8.18 | 2.15 | 8.63 | 2.85 | 10 | 2.34 | > 50 | 1.47 | 3.89 | 6.21 |  | 1.74 |  |
| COc1cc2c(c(OC)c1OC)C(=O)c1c-2n(CCCN=[N+]=[N-])c(=O)c2cc([N+](=O)[O-])ccc12 | 27.3 | > 100 |  |  | > 100 | > 100 | 53 | > 100 | > 100 | > 100 | 71.2 | > 100 | > 100 | > 100 | 39.7 | > 100 |  | > 100 |  | > 100 |
| Oc1c(Cl)cc(CN(Cc2cc(Cl)c(O)c(Cl)c2)C2CCCCC2)cc1Cl |  | > 100 |  | > 100 |  | > 100 |  | > 100 |  | > 100 |  | > 100 |  | > 100 |  | > 100 | > 100 |  |  |  |
| COC1C(O)CC(OC2CC(OC3CC(O[C@@H]4C(=O)c5c(cc6cc(OC7CC(OC8CC(O)C(O)C(C)O8)C(O)C(C)O7)c(C)c(O)c6c5O)C[C@H]4[C@H](OC)C(=O)[C@@H](O)[C@@H](C)O)OC(C)C3O)OC(C)C2O)OC1C (some centres not stated) |  | 11.2 |  | 1.06 |  | 0.116 |  |  |  | 0.564 |  | > 20.3 |  | 0.0224 |  | 0.265 | > 100 | 0.114 |  |  |
| CCOc1ccc(NC(=O)c2cc3ccccc3cc2O)cc1 | 42 | > 100 | 11.7 | 38.5 | 93.4 | > 100 | 51.3 | > 100 | > 100 | > 100 | 34.6 | > 100 | > 100 | > 100 | 57.4 | > 100 | > 100 | > 100 | 49.9 | > 100 |
| O=C(O)c1nnsc1-c1csnn1 |  | > 100 |  | > 100 |  | > 100 |  | > 100 |  | > 100 |  | > 100 |  | > 100 |  | > 100 | > 100 |  |  |  |
